The subject of assay [1] is Soybean shoots. The assay is described as follows: Root development of soybean shoot cuttings in 50 ml tubes with water or fertilizer solution ± NAA. It counts as in vivo. The settings on record: NAA at 10^-8 M and 10^-7 M; day 12; FIG. 1B. Here is the method: Soybean shoots 10 to 15 cm long were cut from 2 similar plants and placed in 50 ml plastic tubes. One shoot was placed in each tube. The tubes contain 50 ml solutions according to the following design: The base solution was either water or a 1:200 dilution of fertilizer stock solution A, B and C. Stock A contains 958.6 grams of 21-5-20 All Purpose from Jack's Professional, 133.8 grams of 15-0-15 Dark Weather (Jack's Professional) and 60.0 grams of 10-0-0 Magnitrate Special (Peter's Excel) in 2 liter of water. Stock B contains 239.6 grams of 15-5-25 Poinsettia Peat-Lite Special (Jack's Professional) in 2 liters of water. Stock C contains 60.0 grams of Epsom salt (magnesium sulfate) in 1.0 liter of water. NAA (1-Naphthaleneacetic acid, Sigma-Aldrich) was added to either water or fertilizer solutions to concentrations of 0, 10^-9 M, 10^-8 M and 10^-7 M. There were 2 fertilizer (with or without) treatments×4 NAA treatments, totaling 8 treatments. The experiment was repeated 3 times, making a total of 24 tubes. The shoots in the solutions were placed in a greenhouse with 20 hour light cycles at 28° C. and 4 hour night cycles at 22° C.

For assay [2], the system named is Soybean shoot cuttings. The assay is described as follows: Root development of soybean shoot cuttings in tissue culture boxes with fertilizer solution and NAA. It counts as in vivo. The settings on record: higher NAA concentrations (10^-8 M, 10^-7 M, 10^-6 M tested); nine days; FIG. 3. As to the method:
Three NAA concentrations at 10^-8 M, 10^-7 M and 10^-6 M with 5 cm, 10 cm and 15 cm long shoots were tested in replicate. Soybean shoot cuttings were taken from plants recovered from tissue culture. Tissue culture boxes (Vitro […]) were used to hold the solutions, and the lids with a 2.5 cm hole in the middle were used to hold the shoots with the help of a cylindrical sponge. NAA solution was obtained from PhytoTechnology Laboratories. Fertilizer was applied from the stock A, B, and C solutions described in Example 1. Three separate 5-liter fertilizer solutions were made by mixing 10 ml each of fertilizer stock solution A, B and C in 4970 ml of tap water. NAA stock solution was added to achieve a final concentration of 10^-8 M, 10^-7 M and 10^-6 M solution, respectively. Soybean shoot cuttings were inserted into the sponge roll, and placed through the lid of the tissue culture box. The shoots in the solutions were placed in a greenhouse with 20 hour light cycles at 27° C. and 4 hour night cycles at 21° C. Data was collected nine days after the shoots were placed in the boxes.

For the compound `O=C(O)Cc1cccc2ccccc12` [NAA, 1-Naphthaleneacetic acid], in assay [1], the “effect of NAA on root growth (root length)” value is “positive effects on root growth”. Also, in assay [2], the “effect of NAA on root length” value is “kept the roots shorter” and the “effect of NAA on root number” value was “stimulated more roots from a shoot”.

Values taken from US20140366441A1, “VEGETATIVE PROPAGATION OF SOYBEAN PLANTS IN A HYDROPONIC ENVIRONMENT” (Bayer Cropscience LP, priority 2012, published 2014).
